This note sets out measurements from PMC2172902 (The Journal of Cell Biology, 2003).

Peptide text beside a SMILES is read from it. * marks the point of attachment. Cbz = O=C(OCc1ccccc1)*

For this experiment, the system named is DLD-1 cells. The experiment can be described thus: chromosome alignment in cultures treated with proteosome inhibitor. It is filed as cell-based, human. Particulars: control cultures, 20 μM.

In the case of `CC(C)C[C@@H](C=O)NC(=O)[C@H](CC(C)C)NC(=O)[C@H](CC(C)C)NC(=O)OCc1ccccc1` [MG132] (Cbz-Leu-Leu-Leu-aldehyde), the proportion of metaphases is reported as roughly 66% and the proportion of prometaphases was roughly 25%.
